{"source": "paper PMC6628648", "about": "“Enabling microbial syringol conversion through structure-guided protein engineering” (Proceedings of the National Academy of Sciences of the …, 2019)", "experiment_in_all_cases": "In vivo syringol conversion in shake flasks, 1H NMR of culture medium", "assay_type_in_all_cases": "cell-based", "key": {"[1]": {"test_system": "Pseudomonas putida KT2440 strain AM156 expressing WT GcoAB", "settings": "20 mM glucose, 1 mM syringol", "procedure": "(§1) A standard for 2-pyrone 6-carboxylate was not available; however, we did verify the presence of 2-pyrone 6-carboxylate using LC-MS-MS (SI Appendix, Fig. S15). While small amounts of pyrogallol, 3MC, and 2-pyrone 6-carboxylate were also observed with the WT GcoAB (AM156), nearly 60% of the original syringol remained after 6 h.\n(§2) Strains used for shake flask experiments were grown overnight in LB media and resuspended the next day in M9 minimal media with 20 mM glucose, as described in SI Appendix. Cells were grown until they reached an OD600 of approximately 1, at which point syringol was added at a final concentration of 1 mM. ^1H NMR spectroscopy was used to analyze syringol consumption.\n(§3) 572 nm was recorded by a Varioskan Lux microplate reader (Thermo Scientific). The absorbance was compared to a standard curve with 0-100 μM H2O2 to quantify the amount of peroxide produced in the reactions.\n(§4) Purified protein was buffer exchanged into 10 mM HEPES pH 7.5 and concentrated to an A280 value of 12, as measured on a NanoDrop 2000 spectrophotometer (Thermo Fisher). Crystals of GcoA were grown with 2.4 M sodium malonate and 200 mM substrate, dissolved in 40% DMSO where necessary. Crystals were cryocooled directly in liquid N2 without further addition of cryoprotectants. […]\n(§5) Strains evaluated in shake flask experiments were initially grown overnight in LB media with appropriate antibiotics from glycerol stocks and resuspended the following day in M9 minimal media (6.78 g/L Na2HPO4, 3 g/L KH2PO4, 0.5 g/L NaCl, 1 g/L NH4Cl, 2 mM MgSO4, 100 µM CaCl2, and 40 µM FeSO4 . 7H2O) supplemented with 20 mM glucose (Sigma-Aldrich) and […] kanamycin.\n(§6) Cells were grown until they reached an OD600 of 1, at which point syringol (Sigma-Aldrich) was added to a final concentration of 1 mM. Syringol concentrations were quantified using any 1H NMR, and spectra were collected using a Bruker Avance III HD 400 MHz Spectrometer and analyzed using Bruker TopSpin3.7 software. For identification of unknown compounds, samples were analyzed via LC-MS-MS using the Acquity UPLC system (Waters Inc.). […]"}, "[2]": {"test_system": "Pseudomonas putida KT2440 strain AM157 expressing GcoA-F169A and GcoB", "settings": "20 mM glucose, 1 mM syringol", "procedure": "as §1, §2, §3, §4, §5, §6"}, "[3]": {"test_system": "Pseudomonas putida KT2440 strain AM155 lacking GcoAB", "settings": "AM155 (does not express GcoA), 1 mM syringol", "procedure": "as §1, §2, §3, §4, §5, §6"}}, "data": [{"smiles": "COc1cccc(OC)c1O", "note": "[syringol, 2,6-dimethoxyphenol]", "values": [{"measurement": "original syringol remaining after 6 h", "setting": "[1]", "value": "~60", "unit": "%"}, {"measurement": "syringol 1H NMR peaks in culture medium after 6 h", "setting": "[2]", "value": "completely disappeared"}, {"measurement": "syringol conversion after 6 h", "setting": "[3]", "value": "no conversion"}]}]}
